In patent US20090203010A1, “MSMB-gene based diagnosis, staging and prognosis of prostate cancer” (Katholieke Universiteit Leuven, K.U. Leuven R&D, priority 2008, published 2009):

How the values were obtained:
Assay type in all cases: cell-based, Human
[1] = tested on: MSMB gene; test: Quantitative RT-PCR of the MSMB transcript level in PC-3 cells
Protocol: (a) The relative amounts of EZH2 (left panel) and MSMB transcripts (right panel) in the indicated prostate cell lines were determined by quantitative RT-PCR with intron-spanning primers. Human prostate PC-3 cells (adenocarcinoma), LNCaP cells (carcinoma) and DU 145 cells (carcinoma) were cultured as monolayers in 50% Dulbecco's modified Eagle's medium (DMEM) and 50% Ham's F12, RPMI1640 and DMEM, respectively, supplemented with 10% fetal calf serum. PZ-HPV-7 cells, an immortalized cell line derived from normal human prostate cells, were cultured in keratinocyte-serum free medium supplemented with 5 ng/ml human recombinant epidermal growth factor and 0.05 mg/ml bovine pituitary extract. Total RNA was isolated using the Genelute Mammalian Total RNA Miniprep kit (Sigma, St. Louis, Mo., USA). A total of […] RNA was reverse-transcribed with oligo dT primer (Sigma) and the M-MulV reverse transcriptase (Fermentas GMBH, St. Leon-Rot, Germany). cDNA (1.5%) was analyzed by real-time PCR in triplicate using a Platinum SYBR Green qPCR SuperMix-UDG (Invitrogen, Paisly, UK) in a Rotorgene detection system (Corbett Research, Cambridge, UK) and normalized to the housekeeping gene hypoxanthine-guanine-phosphoribosyl-transferase (HPRT). […] The DNA was recovered with the Genelute PCR clean-up kit (Sigma) and analyzed by real-time PCR. […] The enrichment of DNA was calculated using the formula:fold enrichment=^2(CtlgG-CtAb), where Ct is the threshold cycle, IgG is the normal rabbit IgG and Ab is the specific antibody.
FIG. 2 concerns how EZH2 is recruited to the MSMB gene and causes trimethylation of H3K27. […] (b) Immunoblotting (upper panel) and quantitative RT-PCR analysis (lower panel) of PC-3 cell lysates, obtained after transfection with either a control siRNA (Ctr), that is, a scrambled version of a siRNA duplex for the housekeeping gene PPP1R8 ([…] (SEQ ID NO:71), Invitrogen) or an EZH2 siRNA (KD; […] (SEQ ID NO:72), Dharmacon, Chicago, Ill., USA). […] SIPP1 served as a loading control for the immunoblotting and ACTIN was used as control for normalization in the quantitative RT-PCR. […]

[2] = tested on: CpG island in the promoter region of the MSMB gene; test: DNA bisulfite sequencing of the MSMB CpG island in PC-3 cells; details: following addition of the DNA methyltransferase inhibitor
Protocol: (a) PC-3 cells were treated for 48 hours with […] of the DNA methyltransferase inhibitor […]. Subsequently, the steady-state levels of the MSMB and EZH2 transcripts were determined by quantitative RT-PCR analysis with intron-spanning primers specific for the indicated genes. The data were expressed relative to the transcript level in the control condition. HPRT was used as a control for normalization. (b) A schematic representation of the MSMB gene on scale. The four exons are indicated by the black boxes and the two analyzed CpG regions by black stars. TSS, transcriptional start site. Methylated CG dinucleotides are denoted underneath by closed circles and unmethylated CGs by open circles. Genomic DNA of PC-3 cells or LNCaP cells was purified with the GenElute Mammalian Genomic DNA Miniprep kit of Sigma. Two microgram was digested overnight with BglII. The DNA was denatured with 0.3 M NaOH at […] for 30 minutes. Sodium bisulfite (3.3 M) and hydroquinone (0.5 mM) were added to the DNA and the mixture was incubated overnight at 55° C.
The DNA was purified with the PCR purification kit of Sigma, St Louis, Mo., USA. The DNA was desulfonated with […] for 15 minutes at 37° C. and precipitated by adding NH4Ac and ethanol. The pellet was air-dried and dissolved in 10 mM Tris and 1 mM ethylene-diaminete-traacetic acid at pH 8. […]

[3] = tested on: EZH2; test: Quantitative RT-PCR of the EZH2 transcript level in PC-3 cells
Protocol: (§1) (a) The relative amounts of EZH2 (left panel) and MSMB transcripts (right panel) in the indicated prostate cell lines were determined by quantitative RT-PCR with intron-spanning primers. Human prostate PC-3 cells (adenocarcinoma), LNCaP cells (carcinoma) and DU 145 cells (carcinoma) were cultured as monolayers in 50% Dulbecco's modified Eagle's medium (DMEM) and 50% Ham's F12, RPMI1640 and DMEM, respectively, supplemented with 10% fetal calf serum. PZ-HPV-7 cells, an immortalized cell line derived from normal human prostate cells, were cultured in keratinocyte-serum free medium supplemented with 5 ng/ml human recombinant epidermal growth factor and 0.05 mg/ml bovine pituitary extract. […] A total of 1-5 mg RNA was reverse-transcribed with oligo dT primer (Sigma) and the M-MulV reverse transcriptase (Fermentas GMBH, St. Leon-Rot, Germany). cDNA (1.5%) was analyzed by real-time PCR in triplicate using a Platinum SYBR Green qPCR SuperMix-UDG (Invitrogen, Paisly, UK) in a Rotorgene detection system (Corbett Research, Cambridge, UK) and normalized to the housekeeping gene hypoxanthine-guanine-phosphoribosyl-transferase (HPRT). […] The DNA was recovered with the Genelute PCR clean-up kit (Sigma) and analyzed by real-time PCR. […]
(§2) FIG. 2 concerns how EZH2 is recruited to the MSMB gene and causes trimethylation of H3K27. […] The enrichment on MSMB is expressed as a %±s.e. of the control value (n=3-4). […]

[4] = tested on: PPP1R8; test: Quantitative RT-PCR of the housekeeping gene PPP1R8 transcript in PC-3 cells; details: siRNA transfection 48 hours
Protocol: FIG. 2 concerns how EZH2 is recruited to the MSMB gene and causes trimethylation of H3K27. (a) ChIP assays were performed in PC-3 cells using rabbit antibodies against a synthetic peptide of human EZH2 (E. Viré et al. (2006), Nature 439:871-874), trimethylated H3K27 (Upstate), trimethylated H3K9 (Upstate) and control IgGs. […] (b) Immunoblotting (upper panel) and quantitative RT-PCR analysis (lower panel) of PC-3 cell lysates, obtained after transfection with either a control siRNA (Ctr), that is, a scrambled version of a siRNA duplex for the housekeeping gene PPP1R8 ([…] (SEQ ID NO:71), Invitrogen) or an EZH2 siRNA (KD; […] (SEQ ID NO:72), Dharmacon, Chicago, Ill., USA). The PC-3 cells were plated at 1.2×10^6 cells in a 10 cm plate. At 24 hours after plating, the cells were transfected with 300 nM of siRNA duplex using Lipofectamine 2000 (Invitrogen). At 48 hours after transfection, the cells were harvested. SIPP1 served as a loading control for the immunoblotting and ACTIN was used as control for normalization in the quantitative RT-PCR. […] The immunoprecipitated DNA was analyzed by quantitative PCR using primers specific for the MSMB gene (FIG. 1, Panel b). The enrichment on MSMB is expressed as a %±s.e. of the control value (n=3-4). […]

[5] = tested on: EZH2 association with the MSMB gene; test: ChIP with anti-EZH2 antibodies on the MSMB gene in PC-3 cells; details: 48 hours, loss only evident in intron 1 (primer sets 3 and 4)
Protocol: as §1, §2

[6] = tested on: H3K27 trimethylation of the MSMB gene; test: ChIP with anti-H3K27me3 antibodies on the MSMB gene in PC-3 cells; details: 48 hours after siRNA transfection
Protocol: as §1, §2

## Nc1ncn([C@@H]2O[C@H](CO)[C@@H](O)[C@H]2O)c(=O)n1 [50-azacytidine]
[1]
  reactivation of the MSMB gene: reactivated
[2]
  methylation of the CpG island in the promoter region (upstream CpG island) of the MSMB gene: decreased
[2]; listed as 5′ azacytidine
  methylation of the CpG island in the promoter region (upstream CpG island) of the MSMB gene: decreased methylation

## CC(/C=C/C(=O)NO)=C\[C@@H](C)C(=O)c1ccc(N(C)C)cc1 [TSA, trichostatin A]
[1]; TSA 50 ng/ml for nine hours, relative to control condition
  increase of the MSMB transcript level: six
[3]; TSA 50 ng/ml for nine hours
  expression level of EZH2: did not affect

## AAGACUCUGAAUGCAGUUGCU (SEQ ID NO:72) [EZH2 siRNA]
[1]; siRNA transfection 48 hours, relative to control siRNA
  increase in the expression of MSMB: three
[3]; siRNA transfection 48 hours
  knockdown of the EZH2 transcript: about 70%
[4]
  transcript level of control housekeeping gene PPP1R8: not affected
[5]
  EZH2 associated with the MSMB gene (ChIP): less EZH2 was associated
[6]
  H3K27 trimethylation of the MSMB gene in intron 1 (ChIP): loss of H3K27 trimethylation
